Laboratory results published in patent US20230085307A1, “PYRIDAZINONE COMPOUND AND HERBICIDE” (NISSAN CHEMICAL CORPORATION, priority 2019, published 2023).

What was measured:
chickweed [1] = assay: Test Example 5: herbicidal effect by foliage application, plastic box (Table 20, symbol P); format: in vivo, common chickweed (Stellaria media); conditions: foliage application, 320 g/ha, three weeks after application
In short: (§1)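 Foliar spray test: emulsion formulation diluted in water to a set application rate, sprayed onto 14-day-old plants raised in diluvial soil at 25° C to 30° C under glass. Both herbicidal effect and crop effect rated visually three weeks later.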

barnyard grass [2] = assay: Test Example 4: herbicidal effect by soil treatment (Table 19, symbol H); format: in vivo, barnyard grass (Echinochloa crus-galli); conditions: amount of applied herbicide 320 g/ha
In short: (§2)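 Herbicidal effect was rated 3 weeks after treatment, using the scoring criteria of an earlier test. The compound, formulated as an emulsion and diluted in water to a set herbicide amount, had been sprayed uniformly on soil over freshly sown seeds. Growth took place in a greenhouse at 25° C. to 30° C.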

redroot pigweed [3] = assay: Test Example 4: herbicidal effect by soil treatment (Table 19, symbol N); format: in vivo, redroot pigweed (Amaranthus retroflexus); conditions: amount of applied herbicide 320 g/ha
In short: as §2

false cleavers [4] = assay: Test Example 5: herbicidal effect by foliage application, plastic box (Table 20, symbol Q); format: in vivo, false cleavers (Galium spurium); conditions: foliage application, 320 g/ha, three weeks after application
In short: as §1

blackgrass [5] = assay: Test Example 4: herbicidal effect by soil treatment (Table 19, symbol J); format: in vivo, blackgrass (Alopecurus myosuroides); conditions: amount of applied herbicide 320 g/ha
In short: as §2

southern crabgrass [6] = assay: Test Example 4: herbicidal effect by soil treatment (Table 19, symbol F); format: in vivo, southern crabgrass (Digitaria ciliaris); conditions: amount of applied herbicide 320 g/ha
In short: as §2

redroot pigweed [7] = assay: Test Example 5: herbicidal effect by foliage application, plastic box (Table 20, symbol N); format: in vivo, redroot pigweed (Amaranthus retroflexus); conditions: foliage application, 320 g/ha, three weeks after application
In short: as §1

false cleavers [8] = assay: Test Example 4: herbicidal effect by soil treatment (Table 19, symbol Q); format: in vivo, false cleavers (Galium spurium); conditions: amount of applied herbicide 320 g/ha
In short: as §2

Italian ryegrass [9] = assay: Test Example 5: herbicidal effect by foliage application, plastic box (Table 20, symbol K); format: in vivo, Italian ryegrass (Lolium multiflorum); conditions: foliage application, 320 g/ha, three weeks after application
In short: as §1

persian speedwell [10] = assay: Test Example 5: herbicidal effect by foliage application, plastic box (Table 20, symbol R); format: in vivo, Persian speedwell (Veronica persica); conditions: foliage application, 320 g/ha, three weeks after application
In short: as §1

green foxtail [11] = assay: Test Example 4: herbicidal effect by soil treatment (Table 19, symbol G); format: in vivo, green foxtail (Setaria viridis); conditions: amount of applied herbicide 320 g/ha
In short: as §2

persian speedwell [12] = assay: Test Example 4: herbicidal effect by soil treatment (Table 19, symbol R); format: in vivo, Persian speedwell (Veronica persica); conditions: amount of applied herbicide 320 g/ha
In short: as §2

Italian ryegrass [13] = assay: Test Example 4: herbicidal effect by soil treatment (Table 19, symbol K); format: in vivo, Italian ryegrass (Lolium multiflorum); conditions: amount of applied herbicide 320 g/ha
In short: as §2

barnyard grass [14] = assay: Test Example 3: herbicidal effect by foliage application, Wagner pot (Table 18, symbol H); format: in vivo, barnyard grass (Echinochloa crus-galli); conditions: 320 g/ha
In short: (§3)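 Plants were sown in alluvial soil held under 0.1–0.5 cm standing water and grown 14 days in a greenhouse at 25–30 °C. An emulsifiable formulation, water-diluted to the set dose, was then sprayed onto the foliage, and effects were scored three weeks later using previously defined criteria.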

rice flat sedge = assay: Test Example 3: herbicidal effect by foliage application, Wagner pot (Table 18, symbol E); format: in vivo, rice flat sedge (Cyperus iria); conditions: 320 g/ha
In short: as §3

velvetleaf [15] = assay: Test Example 5: herbicidal effect by foliage application, plastic box (Table 20, symbol M); format: in vivo, velvetleaf (Abutilon theophrasti); conditions: foliage application, 320 g/ha, three weeks after application
In short: as §1

wild oat [16] = assay: Test Example 5: herbicidal effect by foliage application, plastic box (Table 20, symbol I); format: in vivo, wild oat (Avena fatua); conditions: foliage application, 320 g/ha, three weeks after application
In short: as §1

wild oat [17] = assay: Test Example 4: herbicidal effect by soil treatment (Table 19, symbol I); format: in vivo, wild oat (Avena fatua); conditions: amount of applied herbicide 320 g/ha
In short: as §2

southern crabgrass [18] = assay: Test Example 5: herbicidal effect by foliage application, plastic box (Table 20, symbol F); format: in vivo, southern crabgrass (Digitaria ciliaris); conditions: foliage application, 320 g/ha, three weeks after application
In short: as §1

barnyard grass [19] = assay: Test Example 5: herbicidal effect by foliage application, plastic box (Table 20, symbol H); format: in vivo, barnyard grass (Echinochloa crus-galli); conditions: foliage application, 320 g/ha, three weeks after application
In short: as §1

Japanese bulrush = assay: Test Example 1: herbicidal activity, application before weed generation under submerged conditions (Table 16, symbol B); format: in vivo, Japanese bulrush (Schoenoplectus juncoides); conditions: amount of applied herbicide 320 g/ha
In short: (§4)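 Emulsion formulation, water-diluted to set dose, was put onto the flooded surface (4 cm depth, alluvial soil) the same day weeds were sown and 2.5-leaf rice transplanted. After 3 weeks at 25-30 °C under glass, each species was rated 0 (≤5% kill) to 5 (≥90% kill).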

oval-leafed pondweed = assay: Test Example 1: herbicidal activity, application before weed generation under submerged conditions (Table 16, symbol C); format: in vivo, oval-leafed pondweed (Monochoria vaginalis); conditions: amount of applied herbicide 320 g/ha
In short: as §4

green foxtail [20] = assay: Test Example 5: herbicidal effect by foliage application, plastic box (Table 20, symbol G); format: in vivo, green foxtail (Setaria viridis); conditions: foliage application, 320 g/ha, three weeks after application
In short: as §1

late watergrass = assay: Test Example 1: herbicidal activity, application before weed generation under submerged conditions (Table 16, symbol A); format: in vivo, late watergrass (Echinochloa oryzicola); conditions: amount of applied herbicide 320 g/ha
In short: as §4

Chinese sprangletop = assay: Test Example 3: herbicidal effect by foliage application, Wagner pot (Table 18, symbol D); format: in vivo, chinese sprangletop (Leptochloa chinensis); conditions: 320 g/ha
In short: as §3

windgrass [21] = assay: Test Example 4: herbicidal effect by soil treatment (Table 19, symbol L); format: in vivo, windgrass (Apera spica-venti); conditions: amount of applied herbicide 320 g/ha
In short: as §2

lambsquarters [22] = assay: Test Example 4: herbicidal effect by soil treatment (Table 19, symbol O); format: in vivo, lambsquarters (Chenopodium album); conditions: amount of applied herbicide 320 g/ha
In short: as §2

lambsquarters [23] = assay: Test Example 5: herbicidal effect by foliage application, plastic box (Table 20, symbol O); format: in vivo, lambsquarters (Chenopodium album); conditions: foliage application, 320 g/ha, three weeks after application
In short: as §1

chickweed [24] = assay: Test Example 4: herbicidal effect by soil treatment (Table 19, symbol P); format: in vivo, common chickweed (Stellaria media); conditions: amount of applied herbicide 320 g/ha
In short: as §2

windgrass [25] = assay: Test Example 5: herbicidal effect by foliage application, plastic box (Table 20, symbol L); format: in vivo, windgrass (Apera spica-venti); conditions: foliage application, 320 g/ha, three weeks after application
In short: as §1

blackgrass [26] = assay: Test Example 5: herbicidal effect by foliage application, plastic box (Table 20, symbol J); format: in vivo, blackgrass (Alopecurus myosuroides); conditions: foliage application, 320 g/ha, three weeks after application
In short: as §1

velvetleaf [27] = assay: Test Example 4: herbicidal effect by soil treatment (Table 19, symbol M); format: in vivo, velvetleaf (Abutilon theophrasti); conditions: amount of applied herbicide 320 g/ha
In short: as §2

For Cc1ccc2c(-c3c(O)c(C)nn(C)c3=O)c(-c3ccc4c(c3)OCCO4)sc2c1 [3-059], the “P: chickweed, herbicidal effect grade” value (chickweed [1]) was 5 (Herbicidal rate of 90% or more (almost completely withered)), the “H: barnyard grass, herbicidal effect grade” value (barnyard grass [2]) was 0 (Herbicidal rate of 5% or less (almost no effect)) and the “N: redroot pigweed, herbicidal effect grade” value (redroot pigweed [3]) was 0 (Herbicidal rate of 5% or less (almost no effect)). The “Q: false cleavers, herbicidal effect grade” value (false cleavers [4]) was 2 (Herbicidal rate of 20% or more and less than 40%), the “J: blackgrass, herbicidal effect grade” value (blackgrass [5]) was 0 (Herbicidal rate of 5% or less (almost no effect)) and the “F: southern crabgrass, herbicidal effect grade” value (southern crabgrass [6]) was 0 (Herbicidal rate of 5% or less (almost no effect)). For the same compound, the “N: redroot pigweed, herbicidal effect grade” value (redroot pigweed [7]) was 0 (Herbicidal rate of 5% or less (almost no effect)), the “Q: false cleavers, herbicidal effect grade” value (false cleavers [8]) was 0 (Herbicidal rate of 5% or less (almost no effect)) and the “K: Italian ryegrass, herbicidal effect grade” value (Italian ryegrass [9]) was 4 (Herbicidal rate of 70% or more and less than 90%). For the same compound, the “R: persian speedwell, herbicidal effect grade” value (persian speedwell [10]) was 5 (Herbicidal rate of 90% or more (almost completely withered)), the “G: green foxtail, herbicidal effect grade” value (green foxtail [11]) was 0 (Herbicidal rate of 5% or less (almost no effect)) and the “R: persian speedwell, herbicidal effect grade” value (persian speedwell [12]) was 5 (Herbicidal rate of 90% or more (almost completely withered)). For the same compound, the “K: Italian ryegrass, herbicidal effect grade” value (Italian ryegrass [13]) was 0 (Herbicidal rate of 5% or less (almost no effect)), the “herbicidal effect on barnyard grass (H)” value (barnyard grass [14]) was 4 (Herbicidal rate of 70% or more and less than 90%) and the “herbicidal effect on rice flat sedge (E)” value (rice flat sedge) was 4 (Herbicidal rate of 70% or more and less than 90%). The “M: velvetleaf, herbicidal effect grade” value (velvetleaf [15]) was 0 (Herbicidal rate of 5% or less (almost no effect)), the “I: wild oat, herbicidal effect grade” value (wild oat [16]) was 0 (Herbicidal rate of 5% or less (almost no effect)) and the “I: wild oat, herbicidal effect grade” value (wild oat [17]) was 0 (Herbicidal rate of 5% or less (almost no effect)). For the same compound, the “F: southern crabgrass, herbicidal effect grade” value (southern crabgrass [18]) was 0 (Herbicidal rate of 5% or less (almost no effect)), the “H: barnyard grass, herbicidal effect grade” value (barnyard grass [19]) was 0 (Herbicidal rate of 5% or less (almost no effect)) and the “Herbicidal effect, B: Japanese bulrush” value (Japanese bulrush) was 1 (Herbicidal rate of 5% or more and less than 20%). For the same compound, the “Herbicidal effect, C: oval-leafed pondweed” value (oval-leafed pondweed) was 2 (Herbicidal rate of 20% or more and less than 40%), the “G: green foxtail, herbicidal effect grade” value (green foxtail [20]) was 0 (Herbicidal rate of 5% or less (almost no effect)) and the “Herbicidal effect, A: late watergrass” value (late watergrass) was 2 (Herbicidal rate of 20% or more and less than 40%). For the same compound, the “herbicidal effect on Chinese sprangletop (D)” value (Chinese sprangletop) was 0 (Herbicidal rate of 5% or less (almost no effect)), the “L: windgrass, herbicidal effect grade” value (windgrass [21]) was 0 (Herbicidal rate of 5% or less (almost no effect)) and the “O: lambsquarters, herbicidal effect grade” value (lambsquarters [22]) was 0 (Herbicidal rate of 5% or less (almost no effect)). For the same compound, the “O: lambsquarters, herbicidal effect grade” value (lambsquarters [23]) was 0 (Herbicidal rate of 5% or less (almost no effect)), the “P: chickweed, herbicidal effect grade” value (chickweed [24]) was 0 (Herbicidal rate of 5% or less (almost no effect)) and the “L: windgrass, herbicidal effect grade” value (windgrass [25]) was 0 (Herbicidal rate of 5% or less (almost no effect)). For the same compound, the “J: blackgrass, herbicidal effect grade” value (blackgrass [26]) was 0 (Herbicidal rate of 5% or less (almost no effect)) and the “M: velvetleaf, herbicidal effect grade” value (velvetleaf [27]) was 0 (Herbicidal rate of 5% or less (almost no effect)).
